From the Kinase Knowledgebase extract (Sharma et al. 2016)

Experiments:
[1] = molecular target: CDK2 (UniProt P24941); assay: Enzyme Assay; conditions: for inhibition: concentration not given here
[2] = molecular target: CDK2 (human) (UniProt P24941); assay: Cell-Based Assay; conditions: sw480

Compound | inhibition [1] | IC50 [1] | other results
COc1ccc(Nc2nc3c4c(ccc3[nH]2)NC(=O)/C4=C\c2[nH]ccc2OC)cc1OC | < 50% |  | 
COc1cc[nH]c1/C=C1\C(=O)Nc2ccc3nc(Nc4ccc5c(c4)CCC5)[nH]c3c21 | < 50% |  | 
COc1ccc(Cc2nc3c4c(ccc3[nH]2)NC(=O)/C4=C\c2[nH]ccc2OC)cc1 |  | < 3.5 µM | 
COc1cc[nH]c1/C=C1\C(=O)Nc2ccc3nc(NCCCc4ccccc4)[nH]c3c21 | < 50% |  | 
COc1cc[nH]c1/C=C1\C(=O)Nc2ccc3[nH]c(C(O)c4ccccc4)nc3c21 (configuration not stated) |  | < 3.5 µM | 
COc1cc[nH]c1/C=C1\C(=O)Nc2ccc3[nH]c(NC(C)c4ccccc4)nc3c21 (configuration not stated) |  | < 3.5 µM | 
Cc1nc[nH]c1/C=C1\C(=O)Nc2ccc([N+](=O)[O-])c(N=[N+]=[N-])c21 |  | < 3.5 µM | 
Cc1nc[nH]c1/C=C1\C(=O)Nc2ccc([N+](=O)[O-])c(F)c21 |  | < 3.5 µM | 
CCOC(=O)c1ccc(Nc2nc3c4c(ccc3[nH]2)NC(=O)/C4=C\c2[nH]ccc2OC)cc1 | < 50% |  | 
COC(=O)c1ccc(Nc2nc3c4c(ccc3[nH]2)NC(=O)/C4=C\c2[nH]ccc2OC)cc1 | < 50% |  | 
Cc1nc[nH]c1/C=C1\C(=O)Nc2ccc3[nH]cnc3c21 |  | < 3.5 µM | 
COc1cc[nH]c1/C=C1\C(=O)Nc2ccc3[nH]c(Nc4ccc(N(C)C)cc4)nc3c21 |  | < 3.5 µM | 
COCCCNc1nc2c3c(ccc2[nH]1)NC(=O)/C3=C\c1[nH]ccc1OC |  | < 3.5 µM | 
COc1cc[nH]c1/C=C1\C(=O)Nc2ccc3[nH]c(Nc4cccc(C(C)=O)c4)nc3c21 | < 50% |  | 
COc1cc[nH]c1/C=C1\C(=O)Nc2ccc3nc(NCc4ccc5c(c4)OCO5)[nH]c3c21 | < 50% |  | 
Cc1nc[nH]c1/C=C1\C(=O)Nc2ccc(N)c(N)c21 |  | < 3.5 µM | 

Compound | inhibition [1] | IC50 [1] | other results
COc1cc[nH]c1/C=C1\C(=O)Nc2ccc3[nH]c(-c4ccccc4O)nc3c21 |  | < 3.5 µM | 
COc1cc[nH]c1/C=C1\C(=O)Nc2ccc3[nH]c(C)nc3c21 |  | < 3.5 µM | IC50 [2]: < 1 µM
COc1cc[nH]c1/C=C1\C(=O)Nc2ccc3[nH]c(NCCCCc4ccccc4)nc3c21 | < 50% |  | 
COc1ccccc1Nc1nc2c3c(ccc2[nH]1)NC(=O)/C3=C\c1[nH]ccc1OC | < 50% |  | 
COc1cc[nH]c1/C=C1\C(=O)Nc2ccc3nc(NCc4cccc5ccccc45)[nH]c3c21 | < 50% |  | 
COc1cc[nH]c1/C=C1\C(=O)Nc2ccc3[nH]c(CCCc4ccccc4)nc3c21 |  | < 3.5 µM | 
COc1cc[nH]c1/C=C1\C(=O)Nc2ccc3[nH]c(-c4ccccc4)nc3c21 |  | < 3.5 µM | 
Cc1nc[nH]c1/C=C1\C(=O)Nc2ccc([N+](=O)[O-])c(N)c21 |  | < 3.5 µM | 
COc1cc[nH]c1/C=C1\C(=O)Nc2ccc3nc[nH]c3c21 |  | < 3.5 µM | 
COc1ccc(CCNc2nc3c4c(ccc3[nH]2)NC(=O)/C4=C\c2[nH]ccc2OC)cc1OC | < 50% |  | 
COc1cc[nH]c1/C=C1\C(=O)Nc2ccc3[nH]c(CCc4ccc(O)cc4)nc3c21 |  | < 3.5 µM | 
COc1cc[nH]c1/C=C1\C(=O)Nc2ccc3[nH]c(NCC4CCCO4)nc3c21 (configuration not stated) |  | < 3.5 µM | 
O=C1Nc2ccc3[nH]c(-c4ccccc4)nc3c2/C1=C/c1ccc[nH]1 |  | < 3.5 µM | 
COc1ccc(Nc2nc3c4c(ccc3[nH]2)NC(=O)/C4=C\c2[nH]ccc2OC)cc1 | < 50% |  | 
COc1cc[nH]c1/C=C1\C(=O)Nc2ccc3[nH]c(-c4ccc(C(=O)O)cc4)nc3c21 |  | < 3.5 µM | 
